Measurements published in patent US20120322102A1, “GENETICALLY ENGINEERED HERBICIDE RESISTANT ALGAE” (SAPPHIRE ENERGY, INC., priority 2008, published 2012).
Like-named read-outs stand apart in the source and are kept apart here.

Columns and labels:
[1] = system: Wildtype Chlamydomonas reinhardtii; details: cited from earlier work; for Complete Growth inhibition: concentration at which growth is inhibited; for IC50: Vartak and Sujata 1997/1999, read-out: I50
[2] = system: Resistant Chlamydomonas reinhardtii; details: cited from earlier work; for Highest tolerated concentration: highest concentration an isolated resistant strain can tolerate; for IC50: Vartak and Sujata 1997/1999, read-out: I50
[3] = system: Wildtype Chlamydomonas reinhardtii; assay: Herbicide concentration at which growth of wild type algae is inhibited (chart); type: cell-based; details: unpublished results
From the text: (§1) Provided below is an exemplary chart of herbicide concentrations that can be used in the embodiments disclosed herein. The concentrations provided are the concentration that growth of the wild type algae is inhibited at, and the highest concentrations that an isolated resistant strain of Chlamydomonas reinhardtii can tolerate. One of skill in the art would be able to determine the proper concentration of the herbicides listed in the chart without undue experimentation.

[4] = system: Resistant Chlamydomonas reinhardtii; assay: Highest herbicide concentration an isolated resistant strain can tolerate (chart); type: cell-based; details: unpublished results
From the text: as §1

[5] = system: atpA-EPSPS (G163A/A252T) engineered C. reinhardtii strain; assay: Growth on HSM plates with increasing amounts of glyphosate; type: cell-based, Chlamydomonas reinhardtii; details: 0-2 mM glyphosate, chloroplast atpA-EPSPS (G163A/A252T) strain
Protocol: (§2) To characterize the effect of expressing the double mutated C. reinhardtii EPSPS directly in the chloroplast, engineered strains, along with wild type C. reinhardtii cc 1690 (mt+), were plated on HSM plates with increasing amounts of glyphosate (0-2 mM). Wild type C. reinhardtii cc1690 was sensitive to approximately 1 mM glyphosate whereas the psbD-EPSPS (G163A/A252T) and atpA-EPSPS (G163A/A252T) engineered strains were sensitive at approximately 1.8 and 1.6 mM glyphosate, respectively.

[6] = system: psbD-EPSPS (G163A/A252T) engineered C. reinhardtii strain; assay: as above; type: cell-based, Chlamydomonas reinhardtii; details: 0-2 mM glyphosate, chloroplast psbD-EPSPS (G163A/A252T) strain
Protocol: as §2

[7] = system: wild type C. reinhardtii cc1690 (mt+); assay: as above; type: cell-based, Chlamydomonas reinhardtii; details: 0-2 mM glyphosate
Protocol: as §2

## CCNc1nc(Cl)nc(NC(C)C)n1 [Atrazine]
[1]; Galloway and Mets 1984
  Complete Growth inhibition: 5 µM
[2]; Galloway and Mets 1984
  Highest tolerated concentration: 100 µM

## CCC(C)n1c(=O)[nH]c(C)c(Br)c1=O (stereo not shown) [Bromacil]
[1]; Galloway and Mets 1984
  Complete Growth inhibition: 2 µM
[2]; Galloway and Mets 1984
  Highest tolerated concentration: 50 µM

## COc1nc(C)nc(NC(=O)NS(=O)(=O)c2ccccc2Cl)n1 [Chlorsulfuron]
[1]; Winder and Spalding 1988
  Complete Growth inhibition: 100 µM
[2]; Winder and Spalding 1988
  Highest tolerated concentration: 1000 µM

## CN(C)C(=O)Nc1ccc(Cl)c(Cl)c1 [DCMU, 3-(3,4-dichlorophenyl)-1,1-dimethylurea]
[1]; Galloway and Mets 1984
  Complete Growth inhibition: 2 µM
[2]; Galloway and Mets 1984
  Highest tolerated concentration: 200 µM

## O=C(O)CNCP(=O)(O)O [Glyphosate]
[3]
  Complete Growth inhibition: 1 mM
[4]
  Complete Growth inhibition: 5 mM
[5]
  glyphosate concentration the strain was sensitive to: ~1.6 mM
[6]
  glyphosate concentration the strain was sensitive to: approximately 1.8 mM
[7]
  glyphosate concentration the strain was sensitive to: approximately 1 mM

## CC(C)C1(C)N=C(c2nc3ccccc3cc2C(=O)O)NC1=O (stereo not shown) [Imazaquin]
[1]; Winder and Spalding 1988
  Complete Growth inhibition: 1000 µM
[2]; Winder and Spalding 1988
  Highest tolerated concentration: 10000 µM

## CNc1cnn(-c2cccc(C(F)(F)F)c2)c(=O)c1Cl [Norflurazon]
[1]
  IC50: 1100 nM
[2]
  IC50: 3.6 µM

## C[n+]1ccc(-c2cc[n+](C)cc2)cc1 [Paraquat]
[1]
  IC50: 700 nM
[2]
  IC50: 54 µM
